{"source": "patent US20130267594A1", "about": "“PROLYL HYDROXYLASE INHIBITORS AS RADIATION MITIGATORS AND RADIATION PROTECTORS” (priority 2010, published 2013)", "key": {"Hif1α [1]": {"test_system": "Hif1α", "format": "cell-based, mouse"}, "CHD4 [2]": {"test_system": "CHD4", "format": "cell-based"}, "Hif1α [3]": {"test_system": "Hif1α", "format": "cell-based"}, "Suv39h1": {"test_system": "Suv39h1", "format": "cell-based"}, "MTA3 [4]": {"test_system": "MTA3", "format": "cell-based"}, "MTA3 [5]": {"test_system": "MTA3", "format": "cell-based", "remark": "listed apart in the source"}, "CHD4 [6]": {"test_system": "CHD4", "format": "cell-based", "remark": "listed apart in the source"}}, "data": [{"smiles": "[Cl-].[Cl-].[Co+2]", "note": "[CoCl2]", "values": [{"measurement": "ability to increase Hif1α levels in SuvDKO MEFs", "setting": "Hif1α [1]", "value": "not altered"}, {"measurement": "CHD4 protein levels", "setting": "CHD4 [2]", "value": "increased"}, {"measurement": "Hif1α protein levels", "setting": "Hif1α [3]", "value": "increased"}, {"measurement": "accumulation of Hif1α", "setting": "Hif1α [3]", "value": "significant accumulation of Hif1α"}, {"measurement": "accumulation of Hif1α protein in combination with IR, versus agent alone", "setting": "Hif1α [3]", "value": "much larger accumulation of Hif1α protein"}, {"measurement": "expression of the Suv39h1 methyltransferase", "setting": "Suv39h1", "value": "to a lesser extent, CoCl2, increased expression of the Suv39h1 methyltransferase"}, {"measurement": "MTA3 mRNA levels", "setting": "MTA3 [4]", "value": "increased"}, {"measurement": "MTA3 protein levels", "setting": "MTA3 [5]", "value": "increased"}, {"measurement": "CHD4 mRNA levels", "setting": "CHD4 [6]", "value": "increased"}]}]}
